Assay results from patent US8575128B2, “Methods for transdifferentiation of body tissues” (priority 1999, dated 2013).
Where “and” joins values, the source holds several entries; their conditions need not be identical. Identical values can stand only once. Entries after “also recorded” stand apart in the source; their conditions may differ. Where no end group is shown, it is not given here.

How the values were obtained:
[1] = test system: melanophores and xanthophores; settings: for Direction of chromatophore transdifferentiation from macro observations and photographs of whole animals: fed as in Examples A-C; for Cells containing both melanosomes and pterinosomes (melanophore to xanthophore transdifferentiation), light microscopy: Gomori trichrome stained skin, zinc acetate 7 and 12 days; for Cells containing both melanosomes and pterinosomes (melanophore to xanthophore transdifferentiation), light microscopy / Time on feeding at which the animal died: substance sprinkled on food every other day; for Cells containing both melanosomes and pterinosomes (melanophore to xanthophore transdifferentiation), light microscopy / Colour of the animal by inspection: cGMP 22 days, GMP 67 days; for Identification as transdifferentiation agent by the assay: summary statement
From the text: Larval Axolotls have an epidermis on a thin basement membrane, under which is a thick collagen layer (green when stained with Gomori trichrome for light microscopy.) Only 3 types of cells are present immediately below and slightly embedded in the collagen layer-(a) fibroblasts, which are generally fusiform and have a characteristic light and ultrastructural appearance, (b) melanophores, which contain numerous round or oval black melanosomes, as well as some premelanosomes, and (c) xanthophores, which, contain organelles known as pterinosomes. These appear as vacuoles in light microscopy and vacuoles with wispy or concentric layered material in electron microscopy. In general, melanosomes are normally found only in melanophores and pterinosomes in xanthophores.
All Axolotls were 3-5 cm in length at the beginning of the experiment and were obtained from the Indiana University Axolotl Colony, Bloomington, Ind.).
Temperature was 22 °C with a 12 hour light/12 hour dark
photoperiod. Water was changed daily before feeding, and when the animals were removed from feeding an hour later. They were fed about every day. Every other day, the experimental substance was sprinkled on the beef or fish pellets. All experimental reagents were obtained from Sigma (St. Louis Mo.). […] For feeding, beef liver was placed on the raised bottom partially in and partially out of the water. This permitted the animal to sense the food in the water but prevented the cGMP sprinkled on the beef from washing away. […] For feeding the animals were transferred to smaller plastic containers (weighing canoes) which have one side sloped. The pellets were placed on the slope, partially in and partially out of the water. This permitted the animal to sense the food in the water but prevented the cGMP sprinkled on the pellet from washing away. Deer Park Spring Water (Breingsville, Pa.) was used exclusively.
The animals were observed about weekly under an Olympus SZ stereomicroscope and most were photographed prior to sacrifice or shortly (hours) after death. Animals were fixed in 10% Formalin and 4 mm punch biopsies of skin were processed routinely for histology (Gomori Trichrome) by Charles River Laboratories (Wilmington, Mass.). Slides were examined in an Olympus (Woodbury, N.Y.) BX40 microscope.
Three animals (a control and two GMP fed animals) were biopsied with a 2 mm punch and fixed in Trump=s fixative for 24 hours, and processed routinely for electron microscopy. They were postfixed in 2% osmium tetroxide, dehydrated in a serials of alcohols and embedded in Epon-Araldite (1:1). Processing and photography were performed at the Electron Imaging Facility, Rutger=s University, Piscataway, N.J.

melanocytes = settings: Dupin et al. 2000; cited from earlier work
[2] = test system: human melanoma cell line G-361; assay: Transdifferentiation of G-361 melanoma cells in culture; type: cell-based; design: Phenotypic changes in the cell population: dose or concentration left out as unconfirmed; settings: 7 days
Protocol: A human melanoma cell line. G-361, was purchased from the American Type Culture Collection (ATCC catalog number CRL-1424, Manassas, Va.) in a cryopreserved state. Upon receipt, the tube containing the frozen cells was rapidly thawed in a 371C water bath by swirling the bottom ⅓ of the tube for less than 2 minutes. All subsequent steps were conducted using standard methods of sterile technique. The cells were transferred to a T-25 flask containing 5 ml of pre-warmed McCoy=s 5A modified medium (Life Technologies, Rockville, Md.) and incubated at 371 C in a humidified CO2 incubator. After approximately 24 hours, the original medium was removed and replaced with fresh medium and the cells allowed to grow until they reached approximately 70-80% confluency with the medium being replaced every 2-3 days as needed. At this point, the cells were subcultured into Leighton tubes at low cell densities using well known typsin-EDTA subculturing techniques. After subculturing, the cells were allowed to re-establish their growth for 48 hours prior to administration of drugs.
Few cells resembled a normal melanocyte phenotype. […] The majority of the cells appeared to be epithelial in morphology. […] The microscopic phenotypic heterogeneity observed was compatible with karyotypic analysis provided by ATCC showing a heterogeneous population with regards to chromosome number.
Later, beta-carotene in tetrahydrofuran was added to McCoy=s 5A modified medium to a final concentration of about 33 mg/ml with a final concentration of 0.5% THF. This supplemented medium was added to the Leighton tubes after removal of un-supplemented medium and was replaced every 2 days during the 7 clay experimental period. At the end of 7 days, the cultures were fixed in methanol and the cover slips were Giemsa stained.
Methods: The melanoma cell line G-361, described in Example 1.4 above was used Guanosine was added to McCoy=s 5A modified medium to a final concentration of 3 mg/ml. This supplemented medium was added to the Leighton tubes after removal of unsupplemented medium and was replaced every 2 days during the 7 day experimental period. At the end of 7 days, the cultures were fixed in methanol and the cover slips were Giemsa stained.
Methods: The melanoma cells line G-361, described in Example 14 above was used Guanosine was added to McCoy=s 5A modified medium to final concentration of 3 mg/ml. This supplemented medium was added to the Leighton tubes after removal of un-supplemented medium and was replaced every 2 days for 7 days. Beta-carotene in THF was added to McCoy=s 5A modified medium at a final concentration of 33 mg/ml with a final concentration of 0.5% THF. […]

chromatophores = settings: literature reports (Frost; Thibaudeau and Holder; Bagnara); cited from earlier work

| Compound | Direction of chromatophore transdifferentiation from macro observations and photographs of whole animals [1] | Cells containing both melanosomes and pterinosomes (melanophore to xanthophore transdifferentiation), light microscopy [1] | Identification as transdifferentiation agent by the assay [1] | further results |
| --- | --- | --- | --- | --- |
| Nc1cc[nH]c(=O)n1 [cytosine] | transdifferentiates xanthophores to melanophores |  |  |  |
| CC(=O)[O-].CC(=O)[O-].[Zn+2] [Zinc Acetate, reference compound] |  | cells with both melanosomes and pterinosomes | transdifferentiation agents | Time on feeding at which the animal died [1]: 7 days and 12 days |
| Cl.Cl.Cl.Cl.NCCNCCNCCN [trien, triethylenetetramine tetrahydrochloride] | transdifferentiate melanophores to xanthophores |  |  |  |
| Endothelian 3: Factor reported by Dupin et al. to induce conversion of melanocytes into glial cells (CTCFTYKDKECVYYCHLDIIW; ends and bridges not checked; cysteine pairing not given here; UniProt P14138 97-117, looked up) |  |  |  | Conversion of melanocytes into glial cells (melanocytes): induce the conversion of melanocytes into glial cells |
| O[C@H]1[C@H](O)[C@@H](O)[C@H](O)[C@@H](O)[C@H]1O [myo-inositol] | transdifferentiate melanophores to xanthophores |  | transdifferentiation agents |  |
| Nc1nc2c(ncn2[C@@H]2O[C@@H]3COP(=O)(O)O[C@H]3[C@H]2O)c(=O)[nH]1 [cGMP, guanosine 3′,5′-cyclic monophosphate] |  | presence of melanosomes and pterinosomes in several cells | transdifferentiation agents | Colour of the animal by inspection [1]: lighter by inspection; Time on feeding at which the animal died [1]: 22 days |
| CC1=C(/C=C/C(C)=C/C=C/C(C)=C/C=C/C=C(C)/C=C/C=C(C)/C=C/C2=C(C)CCCC2(C)C)C(C)(C)CCC1 [Beta-carotene, beta-carotene] |  |  |  | Cell death compared with control cultures ([2]; about 33 mg/ml in 0.5% THF): a large segment of the starting population died; Mitotic figures in remaining cell population ([2]; about 33 mg/ml in 0.5% THF): no mitotic figures observed; Morphology of remaining cells ([2]; about 33 mg/ml in 0.5% THF, Giemsa stain): most had triangular morphology and a large nucleus, consistent with neural cells, or were fusiform in shape, consistent with neuroglial or neurilemmal (Schwann) cells |
| Nc1nc2c(ncn2[C@@H]2O[C@H](CO)[C@@H](O)[C@H]2O)c(=O)[nH]1 [guanosine] | transdifferentiate melanophores to xanthophores |  |  | Transdifferentiation of Axolotl chromatophores (chromatophores): acted as a transdifferentiation agent; also recorded: transdifferentiate from one pigmented cell type to another; Phenotypic changes in the cell population ([2]; Giemsa stain): many cells with an increased nuclear to cytoplasmic ratio; also recorded: increased number of triangular cells consistent with neural phenotypes |
| Nc1nc2c(ncn2[C@@H]2O[C@H](COP(=O)(O)O)[C@@H](O)[C@H]2O)c(=O)[nH]1 [GMP, guanosine 5′-monophosphate] |  | clear evidence of transdifferentiation by the presence of cells containing both pterinosomes and melanosomes; also recorded: transdifferentiating from a melanocyte into a xanthophore | transdifferentiation agents | Colour of the animal by inspection [1]: markedly lighter by inspection and had a yellow hue; Cells and organelles in skin, electron microscopy ([1]; fed 67 days): many cells in which both melanosomes and pterinosomes were, present; also recorded: organelles which appeared to be hybrids of melanosomes and pterinosomes |
